This experiment relates to SARS-CoV-2 variants, including Delta, BA.2.75, XBB.1.16, and KP.2. Particulars: BA.2.75, XBB.1.16, and KP.2, 48 h.

As a reminder, the IC50 is the concentration at which inhibition is half-maximal. Read a high IC50 as lower potency.

Molecules are shown by their SMILES. Positions of bridges follow the written chain, without caps; N, C: chain ends. Non-standard residues stand in square brackets, D forms with d. Residues, ends and D or L forms follow the SMILES beside them. S5 = C=CCCC[C@](C)(N)C(=O)O

The compound `CC[C@H](C)[C@H](NC(=O)[C@H](C)NC(=O)[C@H](CCSC)NC(=O)[C@H](CCC(=O)O)NC(=O)[C@H](CC(=O)O)NC(=O)[C@H](CO)NC(=O)[C@H](CC(C)C)NC(=O)[C@H](CC(=O)O)NC(=O)[C@H](CC(C)C)NC(=O)[C@H](CC(C)C)NC(=O)[C@@H](NC(=O)[C@@H](NC(=O)[C@H](CC(N)=O)NC(=O)[C@@H](NC(=O)[C@H](CCCCN)NC(=O)[C@H](CO)NC(=O)[C@@H](NC(=O)[C@H](CCC(=O)O)NC(C)=O)[C@@H](C)CC)[C@@H](C)CC)C(C)C)[C@@H](C)O)C(=O)N[C@@H](CC(C)C)C(=O)N[C@@H](CC(C)C)C(=O)N[C@@H](CCC(=O)O)C(=O)N[C@@H](C)C(=O)N[C@H](C(=O)N[C@@H](CCCCN)C(=O)N[C@@H](CCC(N)=O)C(=O)N[C@@H](CC(C)C)C(=O)N[C@@H](CC(N)=O)C(=O)N[C@@H](CC(=O)O)C(=O)N[C@@H](CO)C(=O)N[C@@H](Cc1ccc(O)cc1)C(=O)N[C@H](C(=O)N[C@@H](CC(=O)O)C(=O)N[C@@H](CC(C)C)C(=O)N[C@@H](CCCCN)C(=O)N[C@@H](CCC(=O)O)C(=O)N[C@@H](CC(C)C)C(N)=O)[C@@H](C)CC)[C@@H](C)CC` [MjHKU4r-HR2P9] came in with an IC50 of 384 to 460 nM. `CC[C@H](C)[C@H](NC(=O)[C@H](C)NC(=O)[C@H](CCSC)NC(=O)[C@H](CCC(=O)O)NC(=O)[C@H](CC(=O)O)NC(=O)[C@H](CO)NC(=O)[C@H](CC(C)C)NC(=O)[C@H](CC(=O)O)NC(=O)[C@H](CC(C)C)NC(=O)[C@H](CC(C)C)NC(=O)[C@@H](NC(=O)[C@@H](NC(=O)[C@H](CC(N)=O)NC(=O)[C@@H](NC(=O)[C@H](CCCCN)NC(=O)[C@H](CO)NC(=O)[C@@H](NC(=O)[C@H](CCC(=O)O)NC(C)=O)[C@@H](C)CC)[C@@H](C)CC)C(C)C)[C@@H](C)O)C(=O)N[C@@H](CC(C)C)C(=O)N[C@@H](CC(C)C)C(=O)N[C@@]1(C)CCCC=CCCC[C@@](C)(C(=O)N[C@@H](CC(C)C)C(=O)N[C@@H](CC(N)=O)C(=O)N[C@@H](CC(=O)O)C(=O)N[C@@H](CO)C(=O)N[C@@H](Cc2ccc(O)cc2)C(=O)N[C@H](C(=O)N[C@@H](CC(=O)O)C(=O)N[C@@H](CC(C)C)C(=O)N[C@@H](CCCCN)C(=O)N[C@@H](CCC(=O)O)C(=O)N[C@@H](CC(C)C)C(N)=O)[C@@H](C)CC)NC(=O)[C@H](CCCCN)NC(=O)[C@H]([C@@H](C)CC)NC(=O)[C@H](C)NC1=O` [MjHKU4r-HR2P10] (Ac-EISKINVTLLDLSDEMAILL[S5]AIK[S5]LNDSYIDLKEL-NH2; staple 21-25) displayed an IC50 of 85.9 to 192 nM.

(Values after publication PMC12432378 (Cell Reports Medicine, 2025).)
